# Measurements from a melting point compilation (Tetko et al.; mined from patent text by program, amines drawn as free bases though some values may be those of a salt).
row,Structure (SMILES),melting point [°C]
1,CSc1[nH]ccc1[N+](=O)[O-],212 to 213
2,Cn1cccc1CNCC1(c2cccc(C(F)(F)F)c2)CCN(C(=O)CN2CCN(c3cnccn3)CC2)CC1,104 to 105
3,CCCOc1ccc(C(C)=O)cc1C(=O)OC,49
4,COC(=O)CCNC(=O)C1CCCN1C(=O)OC(C)(C)C (centres undefined),70
5,CCCCCCC(=N)NC(=S)Nc1ccc(Cl)c([N+](=O)[O-])c1,92 to 94
6,Cn1nnc2c(N)cc3nc(O)c(O)nc3c21,> 300
7,CCn1nc2c(N)nc3ccccc3c2c1CC(C)(C)NCCS(C)(=O)=O,155 to 157
8,COC(COc1cc(C)cc(O)c1)OC,73 to 75
9,CCCN1C(=O)N2CCN=C2c2[nH]cnc21,283 to 285
10,O=C(CCCCCNC(=O)[C@H](Cc1c[nH]c2ccccc12)NC(=O)CCCc1ccccc1)NO,106 to 108
11,CCOC(=O)C1N=CSC12CCN(Cc1ccccc1)CC2 (centres undefined),67 to 68
12,COC(=O)C1CNC(CCc2ccccc2)=N1 (racemic),136 to 141
13,CN1CC=C(c2ccccc2Cc2ccccc2)CC1,55 to 57
14,C=C(C)Cc1c(O)c2c(c3c1CC(C)(C)N=C3c1ccccc1)CC(C)(C)O2,196 to 198
15,COC(=O)C(NC(=O)c1ccccc1)C(C)=O (centres undefined),113
16,Cc1nc2cc(NC(=O)c3cc4cc(F)ccc4n3Cc3cccc(F)c3)ccn2c1C,251 to 253
17,Cc1cc(NC(=O)C(=O)N(C(C)C)C(C)C)cc(C)c1S(=O)(=O)C[N+](=O)[O-],97 to 98

# Other lines, results leading:
row,melting point [°C],Structure (SMILES)
1,188 to 189,O=C1NC(=O)C(Cc2ccc(OCc3coc(-c4ccccc4)n3)cc2)S1 (centres undefined)
2,> 300,CC(=O)NCC(=O)Nc1cc(Cl)cc(Nc2ncnc3[nH]cc(C(=O)c4ccccc4)c23)c1
3,189 to 190,O=c1ccn(CCO)c(C(O)c2cccnc2)c1O (centres undefined)
4,267 to 269,COc1ccc(-c2[nH]nc3c2C(=O)c2c(NC(N)=O)cccc2-3)cc1
5,65 to 70,CCOCCn1c(C(=O)C2CCN(CCC3(c4ccccc4)CCN(C(=O)c4cc(OC)c(OC)c(OC)c4)C3)CC2)nc2ccccc21 (centres undefined)
6,209 to 211,CC(O)(CF)C(=O)Nc1ccc(S(=O)(=O)c2ccncc2)cc1 (centres undefined)
7,78,O=C(CCc1cccc2[nH]ccc12)c1ccccc1OCCN1CCCCC1
8,127 to 128,c1cc(CN2CCCCC2)cc(OCCCNc2ccnc3ccccc23)c1
9,134 to 136,CCOC(=O)[C@@](C)(C#N)[C@@H](c1ccccc1OC)c1cccc2ccccc12
10,300 to 302,CCCCCCc1ccc(C=Cc2cc3cc4ccccc4cc3s2)cc1
11,160 to 162,COc1nc(C)cnc1NS(=O)(=O)c1ccccc1-c1ccc(CC(C)C)c(N)c1
12,149 to 150,Cc1oc(-c2ccccc2)nc1COc1cc(COc2nn(C)cc2CC(=O)O)on1
13,147 to 150,COC(=O)c1cc(=O)c2ccc(S)cc2o1
14,124 to 126,COC(=O)C1=C(C)Nc2ccccc2NC1c1cccc([N+](=O)[O-])c1 (centres undefined)
15,293 to 294,COc1ccc(-c2c(NC(=O)c3cc(C(C)(C)C)c(O)c(C(C)(C)C)c3)cnc3ccc(Cl)cc23)cc1OC
16,34 to 35,ClCCCc1ccc(OCc2ccccc2)cc1
17,139 to 140,COC(=O)c1cc2cc(NS(=O)(=O)c3cccc(Cl)c3C)ccc2o1
18,205 to 207,CCCC(=O)c1cnc2c(F)cccc2c1Nc1ccc(O)cc1C
19,200 to 204,O=C(Cn1nnc2ccccc21)Nc1ccc(-n2nc(C(F)(F)F)cc2C2CC2)cc1
20,137 to 140,NC(=O)Cc1ccc(-c2ccc(F)cc2F)c(F)c1
21,157 to 158,Clc1ccc(Nc2ncc(CCc3cccnc3)c3ccccc23)cc1
22,168 to 175,O=c1c(Br)c(OCc2ccc(Cl)cc2)cnn1-c1ccc(Cl)cc1
